The source of these data is patent US20260250275A1, “HETEROARYL ENHANCERS OF THE PARTICULATE GUANYLYL CYCLASE RECEPTOR A” (University of Florida Research Foundation, Incorporated, priority 2022, published 2026).

In general, Emax refers to the size of the effect at its maximum, as opposed to the concentration needed. As usually defined, the EC50 is the concentration at which the effect is half-maximal.

Like-named read-outs stand apart in the source and are kept apart here. A value given as a limit tells only on which side of the number the result lay.

One series addresses T1, human GC-A (Homo sapiens, UniProt P16066).
T1 construct: host or cells: HEK293
T1 sequence (P16066 33-1061): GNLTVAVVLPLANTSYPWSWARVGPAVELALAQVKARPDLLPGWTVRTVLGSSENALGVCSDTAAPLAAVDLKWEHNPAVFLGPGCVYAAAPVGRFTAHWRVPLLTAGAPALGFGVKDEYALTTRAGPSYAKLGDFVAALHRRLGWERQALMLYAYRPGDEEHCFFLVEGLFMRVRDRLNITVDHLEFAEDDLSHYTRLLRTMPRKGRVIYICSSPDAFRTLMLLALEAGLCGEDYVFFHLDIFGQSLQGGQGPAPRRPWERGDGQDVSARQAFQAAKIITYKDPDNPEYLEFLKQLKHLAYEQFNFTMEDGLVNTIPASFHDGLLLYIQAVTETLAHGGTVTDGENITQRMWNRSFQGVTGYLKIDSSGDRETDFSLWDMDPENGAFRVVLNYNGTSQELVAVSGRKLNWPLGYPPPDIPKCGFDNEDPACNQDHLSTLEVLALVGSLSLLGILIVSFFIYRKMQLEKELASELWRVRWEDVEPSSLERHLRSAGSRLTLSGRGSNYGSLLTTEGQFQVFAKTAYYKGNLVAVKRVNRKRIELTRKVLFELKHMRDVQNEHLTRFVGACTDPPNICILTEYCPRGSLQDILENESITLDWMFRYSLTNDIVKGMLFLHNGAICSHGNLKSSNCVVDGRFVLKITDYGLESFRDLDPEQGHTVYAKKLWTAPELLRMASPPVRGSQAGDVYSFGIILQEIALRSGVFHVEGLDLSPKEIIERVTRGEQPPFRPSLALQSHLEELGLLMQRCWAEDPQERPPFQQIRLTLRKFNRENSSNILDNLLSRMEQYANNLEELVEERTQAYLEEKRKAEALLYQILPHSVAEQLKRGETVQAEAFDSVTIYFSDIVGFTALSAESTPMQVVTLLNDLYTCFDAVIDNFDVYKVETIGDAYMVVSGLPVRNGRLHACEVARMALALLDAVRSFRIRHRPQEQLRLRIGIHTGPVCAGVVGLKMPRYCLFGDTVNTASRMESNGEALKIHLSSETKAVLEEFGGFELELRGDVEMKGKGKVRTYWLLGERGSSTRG
T1 sequence (P01160 124-151 partner limits assumed): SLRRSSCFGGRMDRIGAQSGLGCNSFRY
In words: cGMP potentiation (HTRF) in human GC-A overexpressing HEK293 cells with EC20 ANP. It is filed as cell-based. The following applies: for LLE (lipophilic ligand efficiency = EC50−cLogP): calculated from EC50 and cLogP; for Emax: HEK293, 100% = saturating ANP (10 nM), 0% = EC20 ANP.

The conditions of series [1]: cited from earlier work.
[2] abbreviates: potentiation of cGMP in presence of EC20 ANP (20 pM), Tables 1-7, read-out: EC50.

For `CN(C)CCN1CCCCC1C(=O)Nc1nc2c(F)cc(F)cc2s1` (centres unmarked) [JUF-S2-003], at human GC-A, the “LLE (lipophilic ligand efficiency = EC50−cLogP)” value is 2.51.

For `COc1ccc(-c2csc(NC(=O)C3CCCN(CCN(C)C)C3)n2)cc1` (centres unmarked) [JUF-S7-013], the “LLE (lipophilic ligand efficiency = EC50−cLogP)” value at human GC-A is on record as 2.69.

Turning to `CN(C)C1CCN(CC(=O)Nc2nc3c(F)cc(F)cc3s2)CC1` [JUF-S10-004], the Emax at human GC-A is 91 to 96%. For the same compound, the EC50 on human GC-A (setting [2]) was 1.5 to 2.6 µM.

In the case of `N[C@@H]1CCCC(C(=O)Nc2nc3c(F)cc(F)cc3s2)C1` (some centres unmarked) [JUF-S12-001A], the Emax at human GC-A lay in the range of 87 to 97%.

On to `N[C@@H]1CCC[C@H](C(=O)Nc2nc3c(F)cc(F)cc3s2)C1` [JUF-S12-001A], for which the EC50 on human GC-A (setting [2]) fell in the range of 0.7 to 3.1 µM.

As for `CN(C)CCN[C@@H]1CCC[C@@H](C(=O)Nc2nc3c(F)cc(F)cc3s2)C1` [JUF-S12-002], the EC50 on human GC-A (setting [2]) is above 5 µM.

Consider `CN(C)CCN1CCCC(C(=O)Nc2nc3c(F)cc(F)cc3s2)C1` (centres unmarked) [MCUF 651, reference compound], for which, on human GC-A (titrated on each 384-test plate), the “Emax values of internal control (FIG. 2)” value is 80-100 % response. At human GC-A (titrated on each 384-test plate, read-out: Acceptable EC50 values of internal control (FIG. 2)), the EC50 fell in the range of 0.2 to 0.6 µM.

Consider `CN(C)CCN1CCCC(C(=O)Nc2nc3c(F)cc(F)cc3s2)C1` (centres unmarked) [MCUF-651], for which the Activity in vivo result in series [1] was “active in vivo”. The Oral bioavailability entry in series [1] (in vivo, po) is on record as “orally bioavailable”.
